Reference: paper PMC7829778, “Optimization of 1,4-Naphthoquinone Hit Compound: A Computational, Phenotypic, and In Vivo Screening against Trypanosoma cruzi” (Molecules, 2021)
Read-outs that look alike come from different tables or passages of the source.

Assays:
[1] = system: T. cruzi trypomastigotes Dm28c-Luc; test: Trypanocidal activity against trypomastigotes, Dm28c-Luc clone (luciferase); type: cell-based, Trypanosoma cruzi; conditions: Trypanosoma cruzi, 24 h, mean ± SD of three experiments; for IC50: read-out: Trypanocidal Effect Trypomastigotes Dm28c-Luc IC50; for IC90: read-out: Trypanocidal Effect Trypomastigotes Dm28c-Luc IC90
Experimental: (§1) T. cruzi Dm28c-Luc clone, genetically modified to express firefly luciferase, and Y strain were used in the drug screening assay. Vero cells were infected with T. cruzi, Dm28c-Luc or Y strain, in a 10:1 parasites/host cell ratio and maintained at 37 °C in humidified atmosphere of 5% CO2. Trypomastigotes were harvested from the infected culture supernatant on the 4th day post-infection (dpi) followed by quantification of the number of parasites/mL in Neubauer chamber.
(§2) Screening of the compounds was performed against trypomastigotes and intracellular amastigote forms. Trypomastigotes (1 × 10^6 parasites/well), Dm28c-Luc clone and Y strain, were incubated for 24 h at 37 °C with the 1,4 naphthoquinone derivatives and Bz (0.41–100 μM) and their viability determined by the activity of the luciferase enzyme, after addition of luciferin substrate (300 μg/mL), or CellTiter Glo. The luminescent signal was detected on the FlexStation 3 reader.

[2] = system: T. cruzi trypomastigotes Y strain; test: Trypanocidal activity against trypomastigotes, Y strain (CellTiter Glo); type: cell-based; conditions: Trypanosoma cruzi, 24 h
Experimental: as §1, §2

[3] = Cytotoxicity in vitro assay (CellTiter Glo, ATP level); type: cell-based; conditions: African green monkey, Vero cells
Experimental: The cultures were maintained at 37 °C in humidified atmosphere of 5% CO2.
To evaluate the toxic effects of the 1,4-naphthoquinone derivatives on mammalian cells, Vero cells were seeded at a density of 1.5 × 10^4 cells/well in 96-well white culture plates. Twenty-four hours later, the cell cultures were incubated for 72 h at 37 °C with 1,4-naphthoquinone derivatives (series 1(a–i) and 2(a–j)) and Bz (500–1.9 µM) diluted in RPMI medium supplemented with 10% FBS. After incubation, the cell viability, measured by ATP level, was assessed by adding 20 µL/well of the CellTiter Glo (Promega Corporation, Madison, WI, EUA) solution. The luminescent signal was read on the FlexStation 3 reader (Molecular Devices, Sunnyvale, CA, USA). […] All treatments and controls were performed at low concentration (≤1%) of dimethyl sulfoxide (DMSO). At least three independent assays were performed in duplicate.

[4] = system: intracellular amastigotes of T. cruzi (Dm28c-Luc clone); test: Luminescent screening against intracellular amastigotes in infected Vero cells; type: cell-based, Trypanosoma cruzi; conditions: infected Vero cells treated for 72 h, mean ± SD of three experiments
Experimental: as §1
The effect of the compounds against intracellular amastigotes was screened in 72 h T. cruzi-infected Vero cells. Briefly, Vero cells seeded (1.5 × 10^4 cells/well) on 96-well white plate infected with trypomastigotes (Dm28c-Luc) at a 10:1 multiplicity of parasites/cell. After 24 h of infection, the cultures were washed with PBS and then, treated for 72 h at 37 °C with naphthoquinone derivatives and Bz (0.41–100 µM). After treatment, luciferin (300 µg/mL) was added to the culture and the viability of the parasites was assessed by reading the luminescent signal using the FlexStation 3 reader. Controls were also performed in no-toxic concentrations of DMSO (≤1%).

[5] = trypomastigotes, mean ± SD of three experiments, read-out: Trypanocidal Effect Trypomastigotes Y Strain IC50
[6] = trypomastigotes, mean ± SD of three experiments, read-out: Trypanocidal Effect Trypomastigotes Y Strain IC90
[7] = Table 1, mean ± SD, read-out: Vero Cells Toxicity CC50
[8] = read-out: Trypanocidal Effect Trypomastigotes Y Strain IC50, trypomastigotes, 24 h, mean ± SD of three experiments
[9] = read-out: Trypanocidal Effect Trypomastigotes Y Strain IC90, trypomastigotes, 24 h, mean ± SD of three experiments

Row | SMILES | IC50 [1] | IC90 [1] | IC50 [2, 5] | IC90 [2, 6] | CC50 at 72 h [3, 7] | CC50 at 72 h ([3]; Table 2, read-out: CC50 Vero) | IC50 ([4]; Trypanosoma cruzi, Vero, 72 h) | IC90 ([4]; Trypanosoma cruzi) | IC50 [4] | melting point | IC50 [2, 8] | IC90 [2, 9]
1 | O=C1C(O)=C(C(Sc2ccc(Cl)cc2)c2ccc(Cl)cc2)C(=O)c2ccccc21 (centres unmarked) [Compound 1a, 2-((4-chlorophenyl)((4-chlorophenyl)thio)methyl)-3-hydroxynaphthalene-1,4-dione] | 8.9 ± 0.6 µM | 25.1 ± 1.6 µM | 3.1 ± 0.6 µM | 5.8 ± 0.9 µM | 43.6 ± 2.3 µM | 43.6 ± 2.3 µM | ≤ 6.9 µM | 12.1 ± 1.3 µM | 6.2 ± 0.9 µM | 135 to 136 °C |  | 
2 | O=C1C(O)=C(C(Sc2ccc(Cl)cc2)c2cccc(Cl)c2)C(=O)c2ccccc21 (centres unmarked) [Compound 1b, 2-((3-chlorophenyl)((4-chlorophenyl)thio)methyl)-3-hydroxynaphthalene-1,4-dione] | 9.8 ± 0.5 µM | 30.8 ± 2.9 µM | 3.6 ± 1.6 µM | 8.1 ± 1.3 µM | 42.1 ± 1.9 µM | 42.1 ± 1.9 µM | ≤ 6.9 µM | 12.7 ± 1.8 µM | 6.9 ± 1.5 µM |  |  | 
3 | O=C1C(O)=C(C(Sc2ccc(Cl)cc2)c2ccccc2Cl)C(=O)c2ccccc21 (centres unmarked) [Compound 1c, 2-((2-chlorophenyl)((4-chlorophenyl)thio)methyl)-3-hydroxynaphthalene-1,4-dione] | 8.6 ± 1.4 µM | 29.6 ± 5.4 µM | 4.3 ± 3.2 µM | 7.3 ± 2.2 µM | 44.1 ± 2.3 µM | 44.1 ± 2.3 µM | 9.3 ± 0.8 µM | 23.1 ± 3.3 µM |  | 183 to 184 °C |  | 
4 | O=C1C(O)=C(C(Sc2ccc(Cl)cc2Cl)c2ccccc2)C(=O)c2ccccc21 (centres unmarked) [Compound 1d, 2-(((2,4-dichlorophenyl)thio)(phenyl)methyl)-3-hydroxynaphthalene-1,4-dione] | 9.3 ± 1.1 µM | 23.3 ± 2.1 µM | 2.8 ± 0.6 µM | 5.8 ± 1.1 µM | 82.1 ± 5.1 µM | 82.1 ± 5.1 µM | 13.5 ± 2.1 µM | 31.1 ± 3.1 µM |  | 144 to 145 °C |  | 
5 | O=C1C(O)=C(C(Sc2ccc(Cl)cc2)c2cn(-c3cc(Cl)cc(Cl)c3)nn2)C(=O)c2ccccc21 (centres unmarked) [Compound 1e, 2-(((4-chlorophenyl)thio)(1-(3,5-dichlorophenyl)-1H-1,2,3-triazol-4-yl)methyl)-3-hydroxynaphthalene-1,4-dione] | ~4.5 µM | 16.5 ± 2.8 µM | 4.7 ± 1.9 µM | 5.5 ± 0.9 µM | 34.1 ± 2.9 µM | 34.1 ± 7.5 µM | 9.1 ± 0.7 µM | 27.9 ± 3.9 µM |  | 142 to 143 °C | ~4.5 µM | 
6 | O=C1C(O)=C(C(Sc2ccc(Cl)cc2)c2ccccc2)C(=O)c2c(O)cccc21 (centres unmarked) [Compound 1f, 3-(((4-chlorophenyl)thio)(phenyl)methyl)-2,5-dihydroxynaphthalene-1,4-dione] | 9.8 ± 0.7 µM | 28.1 ± 1.7 µM |  |  | 41.1 ± 2.1 µM | 41.1 ± 2.1 µM | 10.1 ± 1.4 µM | 29.1 ± 2.1 µM |  |  |  | 
7 | COc1ccc(C(Sc2ccc(Cl)cc2)C2=C(O)C(=O)c3ccccc3C2=O)c(OC)c1 (centres unmarked) [Compound 1h, 2-(((4-chlorophenyl)thio)(2,4-dimethoxyphenyl)methyl)-3-hydroxynaphthalene-1,4-dione] | 15.4 ± 4.6 µM |  |  |  | 24.4 ± 2.6 µM | 24 to 34 µM | 12.1 ± 3.9 µM | 19.4 ± 3.6 µM |  |  | 22.9 ± 7.1 µM | 31.9 ± 6.1 µM
8 | COc1ccc(C(Sc2ccc(Cl)cc2)C2=C(O)C(=O)c3ccccc3C2=O)c(OC)c1OC (centres unmarked) [Compound 1i, 2-(((4-chlorophenyl)thio)(2,3,4-trimethoxyphenyl)methyl)-3-hydroxynaphthalene-1,4-dione] | 21.5 ± 2.9 µM |  |  |  | 34.2 ± 3.4 µM | 24 to 34 µM | 15.9 ± 3.1 µM | 27.2 ± 3.4 µM |  |  | 30.1 ± 2.3 µM | 38.9 ± 4.3 µM
9 | COc1ccc(C(Sc2ccccc2)C2=C(O)C(=O)c3ccccc3C2=O)cc1 (centres unmarked) [Compound 2a, 2-Hydroxy-3-((4-methoxyphenyl)(phenylthio)methyl)naphthalene-1,4-dione] | 27.4 ± 2.9 µM | 32.1 ± 1.6 µM | 31.2 ± 4.3 µM | 38.9 ± 5.3 µM | 45.1 ± 1.9 µM | 45.1 ± 1.9 µM | ≤ 6.9 µM | 25.3 ± 1.9 µM | 6.7 ± 1.6 µM |  |  | 
10 | COc1ccc(C(Sc2ccccc2C)C2=C(O)C(=O)c3ccccc3C2=O)cc1 (centres unmarked) [Compound 2b, 2-Hydroxy-3-((4-methoxyphenyl)(o-tolylthio)methyl) naphthalene-1,4-dione] | 25.9 ± 2.2 µM | 31.8 ± 0.9 µM | 27.9 ± 4.1 µM | 37.9 ± 6.1 µM | 44.4 ± 3.4 µM | 44.4 ± 3.4 µM | ~12 µM | 27.4 ± 2.4 µM | 11.3 ± 1.1 µM | 54 to 55 °C |  | 
11 | COc1ccc(C(Sc2cccc(C)c2)C2=C(O)C(=O)c3ccccc3C2=O)cc1 (centres unmarked) [Compound 2c, 2-Hydroxy-3-((4-methoxyphenyl)(m-tolylthio)methyl)naphthalene-1,4-dione] | 52.3 ± 6.4 µM | 84.6 ± 11.4 µM | 26.2 ± 4.8 µM | 32.8 ± 5.1 µM | 48.9 ± 4.7 µM | 48.9 ± 4.7 µM | ~12 µM | 30.9 ± 4.7 µM | 12.6 ± 2.4 µM |  |  | 
12 | COc1ccc(C(Sc2ccc(C)cc2)C2=C(O)C(=O)c3ccccc3C2=O)cc1 (centres unmarked) [Compound 2d, 2-Hydroxy-3-((4-methoxyphenyl)(p-tolylthio)methyl) naphthalene-1,4-dione] | 24.3 ± 3.4 µM | 82.2 ± 7.7 µM | 31.1 ± 1.8 µM | 49.7 ± 7.1 µM | 142 ± 17.6 µM | 142 ± 17.6 µM | 11.9 ± 1.7 µM | 28.8 ± 4.6 µM |  |  |  | 
13 | COc1ccc(C(Sc2ccc(F)cc2)C2=C(O)C(=O)c3ccccc3C2=O)cc1 (centres unmarked) [Compound 2e, 2-(((4-fluorophenyl)thio)(4-methoxyphenyl)methyl)-3-hydroxynaphthalene-1,4-dione] | 24.4 ± 4.4 µM | 31.4 ± 4.4 µM | 20.3 ± 4.1 µM | 32.3 ± 5.1 µM | 47.7 ± 3.2 µM | 47.7 ± 3.2 µM | ≤ 6.9 µM | 19.7 ± 3.2 µM | 6.8 ± 1.5 µM | 132 to 134 °C |  | 
14 | COc1ccc(C(Sc2ccc([N+](=O)[O-])cc2)C2=C(O)C(=O)c3ccccc3C2=O)cc1 (centres unmarked) [Compound 2f, 2-Hydroxy-3-((4-methoxyphenyl)((4-nitrophenyl)thio)methyl)naphthalene-1,4-dione] | 6.5 ± 3.1 µM | 11.5 ± 3.1 µM | 12.5 ± 1.6 µM | 19.9 ± 3.6 µM | 40.6 ± 2.9 µM | 40.6 ± 2.9 µM | ≤ 6.9 µM | 76.6 ± 4.9 µM | 5.7 ± 1.4 µM |  |  | 
15 | CCCSC(C1=C(O)C(=O)c2ccccc2C1=O)c1ccc(OC)cc1 (centres unmarked) [Compound 2g, 2-Hydroxy-3-((4-methoxyphenyl)(propylthio)methyl)naphthalene-1,4-dione] | 13.7 ± 4.1 µM | 28.7 ± 5.1 µM | 12.7 ± 3.9 µM | 23.7 ± 4.1 µM | 47.7 ± 5.2 µM | 47.7 ± 5.2 µM | 10.3 ± 2.4 µM | 37.7 ± 4.1 µM |  |  |  | 
16 | COc1ccc(SC(C2=C(O)C(=O)c3ccccc3C2=O)c2ccc(OC)cc2)cc1 (centres unmarked) [Compound 2i, 2-Hydroxy-3-((4-methoxyphenyl)((4-methoxyphenyl)thio)methyl)naphthalene-1,4-dione] | 24.1 ± 2.7 µM | 44.9 ± 6.7 µM | 10.6 ± 0.4 µM | 31.6 ± 5.4 µM | 44.8 ± 3.3 µM | 44.8 ± 3.3 µM | 15.8 ± 3.2 µM | 34.8 ± 5.3 µM |  |  |  | 
17 | COc1ccc(C(Sc2ccc(SC)cc2)C2=C(O)C(=O)c3ccccc3C2=O)cc1 (centres unmarked) [Compound 2j, 2-hydroxy-3-((4-methoxyphenyl)((4-(methylthio)phenyl)thio)methyl)naphthalene-1,4-dione] | 52.7 ± 12.6 µM | > 100 µM | 89.6 ± 5.4 µM | > 100 µM | 93.5 ± 6.6 µM | 93.5 ± 6.6 µM | 60.2 ± 9.8 µM | > 100 µM |  |  |  | 
